According to patent US10273242B2, “Compound inhibiting activities of BTK and/or JAK3 kinases” (BEIJING HANMI PHARMACEUTICAL CO., LTD., priority 2013, dated 2019):

Columns and labels:
BTK kinase = target: T1, BTK kinase (Homo sapiens, UniProt Q06187); assay: BTK kinase activity inhibition assay (ADP-Glo); type: biochemical; conditions: ATP 50 μM
T1 construct: purchased Invitrogen PV3363
Procedure: The BTK kinase (purchased from Invitrogen, No.: PV3363) was diluted with reaction buffer (40 mM Tris-HCl, pH 7.5; 20 mM MgCl2, 0.1 mg/ml BSA; 1 mM DTT; 2 mM MnCl2) to 2 times of the final concentration (which is 1.1 ng/μL) and added with 5 μL/well to a 96-well plate. The compounds of the present invention were serial diluted with deionized water to four times (i.e., 40 μM, 4 μM, 0.4 μM, 80 nM, 16 nM, 3.2 nM, respectively) of the final concentrations (10 μM, 1 μM, 0.1 μM, 20 nM, 4 nM, 0.8 nM, respectively), and added at 2.5 μL/well to the test wells of the 96-well plate. After incubation at 25° C. for 10 minutes, ATP (50 μM) (purchased from Promega, No.: V9102) and 0.2 μg/μL of Poly E4Y1 (purchased from Sigma, No.: P0275-25MG) were added with 2.5 μL/well and incubated at 25° C. for 120 minutes. After the reaction was completed, 10 μL of the ADP-Glo reagent (ADP-Glo™ kinase assay kit, purchased from Promega, No.: V9102) was added to each well, and reacted at 25° C. for 40 minutes. Then 20 μL of the ADP-Glo kinase detection reagent was added to each well and reacted at 25° C. for 30 minutes. The kinase activity was detected by luminescence using the ADP-Glo kinase assay kit according to the manufacture's instruction, and IC50 values of the compounds of the present invention were calculated.

JAK3 kinase = target: T2, JAK3 kinase (Homo sapiens, UniProt P52333); assay: JAK3 kinase activity inhibition assay (ADP-Glo); type: biochemical; conditions: ATP 10 μM
T2 construct: purchased SignalChem J03-11G
Procedure: The JAK3 kinase (purchased from SignalChem, No.: J03-11G) was diluted with reaction buffer (40 mM Tris-HCl, pH 7.5; 20 mM MgCl2, 0.1 mg/ml BSA; 1 mM DTT) to 2 times of the final concentration (which is 0.5 ng/μL) and added with 5 μL/well to a 96-well plate. The compounds of the present invention were serial diluted with deionized water to four times (i.e., 40 μM, 4 μM, 0.4 μM, 80 nM, 16 nM, 3.2 nM, respectively) of the final concentrations (10 μM, 1 μM, 0.1 μM, 20 nM, 4 nM, 0.8 nM, respectively), and added with 2.5 μL/well to the test wells of the 96-well plate. After incubation at 25° C. for 10 minutes, 10 μM of ATP (purchased from Promega, No.: V9102) and 0.2 μg/μL of Poly E4Y1 (purchased from Sigma, No.: P0275-25MG) were added at 2.5 μL/well and reacted at 25° C. for 60 minutes. After the reaction was completed, 10 μL of the ADP-Glo reagent (ADP-Glo™ kinase assay kit, purchased from Promega, No.: V9102) was added to each well and reacted at 25° C. for 40 minutes. Then 20 μL of the ADP-Glo kinase detection reagent was added to each well and reacted at 25° C. for 30 minutes. The kinase activity was detected by luminescence using the ADP-Glo kinase assay kit according to the manufacture's instruction, and IC50 values of the compounds of the present invention were calculated.

CTLL-2 cells = assay: IL-2 induced CTLL-2 cell proliferation assay (CCK-8); type: cell-based; conditions: Mus musculus, IL-2 induced proliferation, 24 hours
Procedure: The compounds of the present invention were serial diluted with RPMI-1640 complete medium (purchased from Gibco, No.: 22440) to three times (i.e., 3 μM, 0.6 μM, 120 nM, 24 nM, 4.8 nM, 0.96 nM, respectively) of the final concentrations (1 μM, 0.2 μM, 40 nM, 8 nM, 1.6 nM, 0.32 nM, respectively), and added at 50 μL/well to the test wells of a 96-well plate. Control wells with IL-2 (referred to as IL-2^+) (IL-2 was purchased from R & D, No.: 402-ML-020/CF) and without IL-2 (referred to as IL-2^−) (with addition of 50 μL of the medium). CTLL-2 cells (purchased from ATCC, No.: TIB-214) at the logarithmic growth phase were rinsed with PBS buffer (pH 7.2), then resuspended in RPMI-1640 complete medium without IL-2, and seeded at 50000 cells/50 μL/well in the 96-well plate. The plate was placed at 37° C., 5% CO2 and pre-incubated for 1 hour. Then, to the test wells and the IL-2^+ control well RPMI-1640 complete medium containing IL-2 (50 μL/well) was added, while to the IL-2^− control well RPMI-1640 complete medium without IL-2 (50 μL/well) was added. The cells were stimulated for 24 hours at 37° C., 5% CO2. After this, the 96-well plate was taken out from the incubator. […] Absorption was determined at 450 nm of wavelength, and IC50 values of the compounds of the present invention were thereby calculated.

T2 sequence (P52333 781-1124 limits assumed): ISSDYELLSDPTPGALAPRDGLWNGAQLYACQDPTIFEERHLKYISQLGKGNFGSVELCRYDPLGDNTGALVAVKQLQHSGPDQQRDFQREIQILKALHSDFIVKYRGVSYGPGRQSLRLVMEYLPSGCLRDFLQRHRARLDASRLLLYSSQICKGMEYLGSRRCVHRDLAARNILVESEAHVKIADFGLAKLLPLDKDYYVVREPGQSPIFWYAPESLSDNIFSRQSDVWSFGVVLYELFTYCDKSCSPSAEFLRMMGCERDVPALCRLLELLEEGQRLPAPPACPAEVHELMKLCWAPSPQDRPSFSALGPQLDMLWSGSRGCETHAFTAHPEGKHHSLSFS
T1 sequence (Q06187 whole entry): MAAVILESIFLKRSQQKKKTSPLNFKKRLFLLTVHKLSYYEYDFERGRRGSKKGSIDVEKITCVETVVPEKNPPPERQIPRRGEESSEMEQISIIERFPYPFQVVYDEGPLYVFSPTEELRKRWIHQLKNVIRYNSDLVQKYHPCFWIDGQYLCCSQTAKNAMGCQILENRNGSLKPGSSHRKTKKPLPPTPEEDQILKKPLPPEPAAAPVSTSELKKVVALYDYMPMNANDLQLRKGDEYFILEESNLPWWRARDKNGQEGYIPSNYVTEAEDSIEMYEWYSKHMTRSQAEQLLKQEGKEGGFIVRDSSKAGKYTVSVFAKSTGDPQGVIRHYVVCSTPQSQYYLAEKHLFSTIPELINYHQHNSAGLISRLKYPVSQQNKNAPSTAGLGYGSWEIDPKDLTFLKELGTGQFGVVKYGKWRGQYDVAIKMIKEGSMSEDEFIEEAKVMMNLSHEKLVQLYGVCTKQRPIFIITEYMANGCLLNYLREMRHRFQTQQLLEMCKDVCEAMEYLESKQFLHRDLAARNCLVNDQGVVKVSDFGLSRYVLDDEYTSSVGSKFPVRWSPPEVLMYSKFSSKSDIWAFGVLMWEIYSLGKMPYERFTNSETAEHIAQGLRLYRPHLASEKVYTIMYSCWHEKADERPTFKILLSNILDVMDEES

SMILES	IC50 (BTK kinase)	IC50 (JAK3 kinase)	IC50 (CTLL-2 cells)
C=CC(=O)N1CCC[C@@H](Nc2nc(Nc3cc(C)no3)nc3ccsc23)C1 [Example 85]	50 to 100 nM	10 to 100 nM	–
C=CC(=O)N1CC(CNc2nc(Nc3cnn(C)c3)nc3ccoc23)C1 [Example 92, 1-(3-(((2-((1-methyl-1H-pyrazol-4-yl)amino)furo[3,2-d]pyrimidin-4-yl)amino)methyl)azetidin-1-yl)prop-2-en-1-one]	≤ 50 nM	100 to 1000 nM	–
C=CC(=O)N1CC[C@@H](Nc2nc(Nc3cc(C)ns3)nc3ccoc23)C1 [Example 94]	≤ 50 nM	≤ 10 nM	–
C=CC(=O)N1CCC[C@@H](Nc2nc(Nc3cnn(C)c3)nc3ccoc23)C1 [Example 95]	≤ 50 nM	10 to 100 nM	–
C=CC(=O)N1CC(CNc2nc(Nc3cnn(C)c3)nc3sccc23)C1 [Example 99, 1-(3-(((2-((1-methyl-1H-pyrazol-4-yl)amino)thieno[2,3-d]pyrimidin-4-yl)amino)methyl)azetidin-1-yl)prop-2-en-1-one]	50 to 100 nM	10 to 100 nM	–
C=CC(=O)N1CC[C@@H](Nc2nc(Nc3cnn(C)c3)nc3sccc23)C1 [Example 101]	50 to 100 nM	100 to 1000 nM	–
C=CC(=O)N1CC[C@@H](Nc2nc(Nc3cc(C)ns3)nc3sccc23)C1 [Example 102]	≤ 50 nM	10 to 100 nM	–
C=CC(=O)N1CCC[C@@H](Nc2nc(Nc3cnn(C)c3)nc3sccc23)C1 [Example 103]	≤ 50 nM	100 to 1000 nM	–
C=CC(=O)N1CCC[C@@H](Nc2nc(Nc3cc(C)ns3)nc3sccc23)C1 [Example 104]	≤ 50 nM	10 to 100 nM	–
C=CC(=O)N1CC[C@@H](N(C)c2nc(Nc3cnn(C)c3)nc3ccsc23)C1 [Example 105, (R)-1-(3-(methyl(2-((1-methyl-1H-pyrazol-4-yl)amino)thieno[3,2-d]pyrimidin-4-yl)amino)pyrrolidin-1-yl)prop-2-en-1-one]	≤ 50 nM	10 to 100 nM	–
C=CC(=O)N1CC(CNc2nc(Nc3cnn(C(C)C)c3)nc3ccsc23)C1 [Example 108]	≤ 50 nM	≤ 10 nM	–
C=CC(=O)N1CC(CNc2nc(Nc3cnn(C4CCC4)c3)nc3ccsc23)C1 [Example 111]	≤ 50 nM	10 to 100 nM	–
C=CC(=O)N1CC(CNc2nc(Nc3cnn(COC)c3)nc3ccsc23)C1 [Example 114]	≤ 50 nM	10 to 100 nM	–
C=CC(=O)N1CC(CNc2nc(Nc3cnn(CCOC)c3)nc3ccsc23)C1 [Example 115]	≤ 50 nM	10 to 100 nM	–
C=CC(=O)N1CC(CNc2nc(Nc3cnn(C(C)=O)c3)nc3ccsc23)C1 [Example 116]	≤ 50 nM	10 to 100 nM	–
C=CC(=O)N1CC[C@@H](Nc2nc(Nc3cnn(C(C)C)c3)nc3ccsc23)C1 [Example 119]	≤ 50 nM	10 to 100 nM	–
C=CC(=O)N1CC[C@@H](Nc2nc(Nc3cnn(CCN(C)C)c3)nc3ccsc23)C1 [Example 124]	≤ 50 nM	10 to 100 nM	–
C=CC(=O)N1CCC[C@@H](Nc2nc(Nc3cnn(C(C)C)c3)nc3ccsc23)C1 [Example 128]	≤ 50 nM	10 to 100 nM	–
C=CC(=O)N1CCC[C@@H](Nc2nc(Nc3cnn(C4CCCC4)c3)nc3ccsc23)C1 [Example 130]	≤ 50 nM	10 to 100 nM	–
C=CC(=O)N1CCC[C@@H](Nc2nc(Nc3cnn(C)c3)nn3cccc23)C1 [Example 135]	≤ 50 nM	10 to 100 nM	–
C=CC(=O)N1CC[C@@H](Nc2nc(Nc3cc(C)ns3)nn3cccc23)C1 [Example 137]	≤ 50 nM	≤ 10 nM	100 to 1000 nM
C=CC(=O)N1CC[C@@H](Nc2nc(Nc3cnn(C)c3)nn3cccc23)C1 [Example 138]	≤ 50 nM	10 to 100 nM	–

The next lines start with results.

IC50 (BTK kinase)	IC50 (JAK3 kinase)	SMILES	IC50 (CTLL-2 cells)
≤ 50 nM	10 to 100 nM	C=CC(=O)N1CC[C@@H](Nc2nc(Nc3cnn(C)c3)nc3ccoc23)C1 [Example 93]	–
≤ 50 nM	≤ 10 nM	C=CC(=O)N1CCC[C@@H](Nc2nc(Nc3cc(C)ns3)nc3ccoc23)C1 [Example 96]	–
≤ 50 nM	10 to 100 nM	C=CC(=O)N1CC(CNc2nc(Nc3cnn(C4CCCC4)c3)nc3ccsc23)C1 [Example 112]	–
≤ 50 nM	10 to 100 nM	C=CC(=O)N1CC[C@@H](Nc2nc(Nc3cnn(CC)c3)nc3ccsc23)C1 [Example 118]	–
≤ 50 nM	10 to 100 nM	C=CC(=O)N1CC[C@@H](Nc2nc(Nc3cnn(C4CCC4)c3)nc3ccsc23)C1 [Example 120]	–
≤ 50 nM	10 to 100 nM	C=CC(=O)N1CC[C@@H](Nc2nc(Nc3cnn(C4CCCC4)c3)nc3ccsc23)C1 [Example 121]	–
≤ 50 nM	≤ 10 nM	C=CC(=O)N1CC[C@@H](Nc2nc(Nc3cnn(CCOC)c3)nc3ccsc23)C1 [Example 122]	–
≤ 50 nM	10 to 100 nM	C=CC(=O)N1CC[C@@H](Nc2nc(Nc3cnn(CCCOC)c3)nc3ccsc23)C1 [Example 123]	–
≤ 50 nM	≤ 10 nM	C=CC(=O)N1CC[C@@H](Nc2nc(Nc3cnn(C4CCOCC4)c3)nc3ccsc23)C1 [Example 125]	–
≤ 50 nM	10 to 100 nM	C=CC(=O)N1CC[C@@H](Nc2nc(Nc3cnn(CCN4CCOCC4)c3)nc3ccsc23)C1 [Example 126]	–
≤ 50 nM	≤ 10 nM	C=CC(=O)N1CCC[C@@H](Nc2nc(Nc3cnn(CC)c3)nc3ccsc23)C1 [Example 127]	–
≤ 50 nM	10 to 100 nM	C=CC(=O)N1CCC[C@@H](Nc2nc(Nc3cnn(C4CCC4)c3)nc3ccsc23)C1 [Example 129]	–
≤ 50 nM	10 to 100 nM	C=CC(=O)N1CCC[C@@H](Nc2nc(Nc3cnn(CCOC)c3)nc3ccsc23)C1 [Example 131]	–
≤ 50 nM	≤ 10 nM	C=CC(=O)N1CCC[C@@H](Nc2nc(Nc3cc(C)ns3)nn3cccc23)C1 [Example 134, (R)-1-(3-((2-((3-methyl-isothiazol-5-yl)amino)pyrrolo[2,1-f][1,2,4]triazin-4-yl)amino)piperidin-1-yl)prop-2-en-1-one]	≤ 100 nM
